{
  "source": "patent US20150265642A1",
  "about": "“NAD BIOSYNTHESIS AND PRECURSORS IN THE PREVENTION AND TREATMENT OF INFLAMMATION” (PRESIDENT AND FELLOWS OF HARVARD COLLEGE, priority 2013, published 2015)",
  "key": {"[1]": {"system": "PGC-1α/β KO myotubes", "test": "Gene expression (qPCR) and HIF-1α immunoblot in PGC-1α/β KO myotubes", "format": "cell-based, mice", "set-up": "expression of mitochondrially-encoded ETC genes (ND1, CYTB, COX1, ATP6): dose or concentration left out as unconfirmed", "details": "primary PGC-1α/β KO myotubes incubated with NMN (12 h)", "experimental": "Primary myoblasts cells were isolated from WT, SIRT1 KO (Price et al., 2012) and PGC-1α/β KO (Zechner et al., 2010) mice as previously described (Price et al., 2012). WT and PGC-1α/β KO primary myoblasts were plated and allowed to differentiate into myotubes by replacing the media with low glucose DMEM supplemented with 2% horse serum (Sigma-Aldrich) for 4 days. After the differentiation the cells were infected with empty vector or flag-SIRT1 adenovirus as described before (Gerhart-Hines et al., 2007). Media was replaced with fresh DMEM supplemented with 2% horse serum (Sigma-Aldrich) for an additional 48 hr and, after that the cells were harvested for the different assays as described. To investigate the role of HIF-1α in genome asynchrony, PGC-1α/β KO primary myotubes were treated for 12 hours with 1 mM DMOG (Sigma) or 10 μM DFO (Sigma), 24 h after infection with empty vector of flag-SIRT1 adenovirus or after 12 h treatment with […] NMN (Sigma).\n(§1) RNA from skeletal muscle tissue and C2C12 cells were extracted with RNeasy mini kit (Qiagen) according to the instructions and quantified using the NanoDrop 1000 spectrophotometer (Thermo Scientific). cDNA was synthesized with the iSCRIP cDNA synthesis kit (BioRad) using 600 ng of RNA. Quantitative RT-PCR reactions were performed using 1 μM of primers and LightCycler® 480 SYBR Green Master (Roche) on an LightCycler® 480 detection system (Roche). Calculations were performed by a comparative method (2-ΔCT) using 18S as an internal control. For mtDNA analysis, total DNA was extracted with DNeasy blood and tissue kit (Qiagen). mtDNA was amplified using primers specific for the mitochondrial cytochrome c oxidase subunit 2 (COX2) gene and normalized to genomic DNA by amplification of the ribosomal protein s18 (rps18) nuclear gene. Primers were designed using the IDT software (IDT) and the primer sequences can be found in Table 1.\n(§2) Protein extracts from tissue or C2C12 cells were obtained by lysis in ice-cold lysis buffer (150 mM NaCl, 10 mM Tris HCl (pH 7.4), 1 mM EDTA, 1 mM EGTA, 1% Triton X-100, 0.5% NP-40) supplemented with a cocktail of protease and phosphatase inhibitors (Roche). Protein content was determined by the Bradford protein assay (Biorad), and 50 μg proteins were run on SDS-PAGE under reducing conditions. The separated proteins were then electrophoretically transferred to a polyvinylidene difluoride membrane (Perkin-Elmer). […] The immunostaining was detected using horseradish peroxidase-conjugated anti-rabbit or anti-mouse immunoglobulin for 1 h at room temperature."}, "[2]": {"system": "HIF-1α target genes (PGK-1, Glut1, PKD1, VEGFa)", "test": "qPCR of HIF-1α target genes in gastrocnemius of NMN-treated mice", "format": "in vivo", "details": "24-month-old mice; NMN 500 mg/kg IP, one week", "experimental": "(§3) C57BL/6J mice of 3, 6, 22, 24, or 30 months of age were obtained from the National Institutes of Aging mouse aging colony. Mice were acclimated for at least one-week prior to sacrifice. 3, and 24-month-old mice were given interperitoneal (IP) injections of 500 mg NMN/kg body weight per day or the equivalent volume of PBS for 7 consecutive days at 5:00 pm and 7:00 am on day 8 and sacrificed 4 hr after last injection. All animal studies followed the guidelines of and were approved by the Harvard Institutional Animal Care and Use Committee\nas §1, with “Primers were designed using the IDT software (IDT) and the primer sequences can be found in Table 1.” left out"}, "[3]": {"system": "mitochondrial-encoded genes (ND1, Cytb, COX1 and ATP6)", "test": "qPCR of mitochondrial-encoded genes in gastrocnemius of NMN-treated mice", "format": "in vivo", "text": "C57BL/6J mice of 6, 22, or 30 months of age were obtained from the National Institutes of Aging mouse aging colony. Additionally 22 months old caloric restricted mice were also obtained from the National Institutes of Aging mouse aging colony. EGLN1 KO, SIRT1 KO and SIRT1 OE mice were generated as previously described (Minamishima et al., 2008; Price et al., 2012). Mice were acclimated for at least one-week prior to sacrifice. 3, 6, 22 and 24-month-old mice were given interperitoneal (IP) injections of 500 mg NMN/kg body weight per day or the equivalent volume of PBS for 7 consecutive days at 5:00 pm and 7:00 am on day 8 and sacrificed 4 hr after last injection.\nWhole body adult-inducible Egln1 knockout mice (Minamishima et al, 2007) were treated with IP injection of tamoxifen for 3 days after which they were allowed to rest. The mice were given interperitoneal (IP) injections of 500 mg NMN/kg body weight per day or the equivalent volume of PBS for 7 consecutive days at 5:00 pm and 7:00 am on day 8 and sacrificed 4 hr after last injection. All animal studies followed the guidelines of and were approved by the Harvard Institutional Animal Care and Use Committee.\nas §1, with “Primers were designed using the IDT software (IDT) and the primer sequences can be found in Table 1.” left out"}, "[4]": {"system": "HIF-1α", "test": "Immunoblot for HIF-1α in gastrocnemius of NMN-treated mice", "format": "in vivo", "experimental": "as §3\nC57BL/6J mice of 6, 22, or 30 months of age were obtained from the National Institutes of Aging mouse aging colony. Additionally 22 months old caloric restricted mice were also obtained from the National Institutes of Aging mouse aging colony. […]\nas §2, with “conditions.” for “conditions. The separated proteins were then electrophoretically transferred to a polyvinylidene difluoride membrane (Perkin-Elmer).”, “temperature. […]” for “temperature.”"}},
  "note": "“Also recorded” adds a separate entry of the source.",
  "data": [
    {"compound": "NC(=O)c1ccc[n+]([C@@H]2O[C@H](COP(=O)([O-])O)[C@@H](O)[C@H]2O)c1", "note": "[NMN, nicotinamide mononucleotide]", "values": [
      {"measurement": "expression of mitochondrially-encoded ETC genes (ND1, CYTB, COX1, ATP6)", "setting": "[1]", "result": "induced expression of mitochondrially-encoded ETC genes"},
      {"measurement": "expression of HIF-1α target genes", "setting": "[2]", "result": "suppressed the expression of HIF-1α target genes"},
      {"measurement": "mitochondrial-encoded genes in the skeletal muscle", "setting": "[3]; Egln1 KO mice treated with NMN, compared to WT controls", "result": "did not restore"},
      {"measurement": "ability of NMN to induce mitochondrially-encoded genes", "setting": "[3]; inducible SIRT1 KO mice, skeletal muscle", "result": "lost in animals lacking SIRT1"},
      {"measurement": "expression of mitochondrial-encoded genes", "setting": "[3]; old (22-month-old) mice, gastrocnemius, NMN one week", "result": "restored"},
      {"measurement": "HIF-1α protein", "setting": "[4]; 22-month-old mice, gastrocnemius, NMN IP 500 mg/kg/day, 7 days, 500 mg/kg/day", "result": "reversed the age-induced decline in VHL and consequent accumulation of HIF-1α; also recorded: destabilizes HIF-1alpha in the skeletal muscle of old animals"},
      {"measurement": "HIF-1α in muscle", "setting": "[4]; 24-month-old mice, NMN 500 mg/kg IP, one week", "result": "reversed the age-induced increase in HIF-1α in muscle"}
    ]}
  ]
}
